The values below come from patent publication US20250312462A1, “PAK1 DEGRADERS AND METHODS OF USE THEREOF” (INSTITUTE FOR CANCER RESEARCH D/B/A THE RESEARCH INSTITUTE …, priority 2022, published 2025).

In one experiment the target is TLK2 (Homo sapiens, UniProt Q86UE8). In words: KINOMEscan. To be noted: read-out: Percent Control.
In another experiment the target is CAMK1G (Homo sapiens, UniProt Q96NX5). As to the kind of experiment: KINOMEscan. To be noted: read-out: Percent Control.
For the next experiment, the target named is SRMS (Homo sapiens, UniProt Q9H3Y6). As to the kind of experiment: KINOMEscan. Particulars: read-out: Percent Control.
For the next experiment, the target named is PAK1 (Homo sapiens, UniProt Q13153). As to the kind of experiment: Global multiplexed mass spectrometry proteomics in MOLT4 cells. Format: cell-based. On the set-up: endogenous in cells; host or cells: MOLT4. To be noted: 1 μM, 5 hours. The procedure:
MOLT4 cells were treated with DMSO in biological triplicate and 1 μM BJG-05-039 for 5 hours and harvested by centrifugation. Cell lysis was performed by the addition of Urea buffer (8 M Urea, 50 mM NaCl, 50 mM 4-(2-hydroxyethyl)-1-piperazineethanesulfonic acid (EPPS) pH 8.5, Protease and Phosphatase inhibitors) followed by manual homogenization by 20 passes through a 21-gauge (1.25 in. long) needle. Lysate was clarified by centrifugation at 4° C. and protein quantified using bradford (Bio-Rad) assay. 100 μg of protein for each sample was reduced, alkylated and precipitated using methanol/chloroform as described (Donovan, et al. (2018) Elife 7: e38430). The resulting precipitated protein was resuspended in 4 M Urea, 50 mM HEPES pH 7.4, buffer for solubilization, followed by dilution to 1 M urea with the addition of 200 mM EPPS, pH 8. Proteins were digested for 12 hours at room temperature with LysC (1:50 ratio), followed by dilution to 0.5 M urea and a second digestion step was performed by addition of trypsin (1:50 ratio) for 6 hours at 37° C. […]
Quantification was performed using a MS3-based TMT method as described (Donovan et al. (2020) Cell 183(6):1714-1731). […]
Proteome Discoverer 2.4 (Thermo Fisher Scientific) was used for .RAW file processing and controlling peptide and protein level false discovery rates, assembling proteins from peptides, and protein quantification from peptides. […]

In a further experiment the target is AAK1 (Homo sapiens, UniProt Q2M2I8). In words: KINOMEscan. Particulars: read-out: Percent Control.
The next experiment has as its target MEK2 (Homo sapiens, UniProt P36507). As to the kind of experiment: KINOMEscan. Particulars: read-out: Percent Control.
The next experiment has as its target VEGFR2 (Homo sapiens, UniProt P35968). In words: KINOMEscan. To be noted: read-out: Percent Control.

Sequence of PAK1 (Q13153 whole entry): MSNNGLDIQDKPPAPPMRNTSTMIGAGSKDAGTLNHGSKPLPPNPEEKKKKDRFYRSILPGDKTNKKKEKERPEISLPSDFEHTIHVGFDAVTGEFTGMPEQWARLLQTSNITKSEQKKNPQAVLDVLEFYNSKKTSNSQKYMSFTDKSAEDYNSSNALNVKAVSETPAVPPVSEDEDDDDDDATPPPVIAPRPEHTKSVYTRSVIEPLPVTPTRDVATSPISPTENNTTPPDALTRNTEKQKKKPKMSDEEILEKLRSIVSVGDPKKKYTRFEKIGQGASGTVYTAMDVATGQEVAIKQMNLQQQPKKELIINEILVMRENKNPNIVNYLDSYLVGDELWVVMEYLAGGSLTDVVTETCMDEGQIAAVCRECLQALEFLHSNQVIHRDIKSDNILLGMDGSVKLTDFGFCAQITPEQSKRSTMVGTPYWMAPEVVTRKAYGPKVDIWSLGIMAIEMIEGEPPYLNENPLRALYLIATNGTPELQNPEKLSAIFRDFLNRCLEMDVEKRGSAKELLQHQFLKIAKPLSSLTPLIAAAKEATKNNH
Sequence of SRMS (Q9H3Y6 whole entry): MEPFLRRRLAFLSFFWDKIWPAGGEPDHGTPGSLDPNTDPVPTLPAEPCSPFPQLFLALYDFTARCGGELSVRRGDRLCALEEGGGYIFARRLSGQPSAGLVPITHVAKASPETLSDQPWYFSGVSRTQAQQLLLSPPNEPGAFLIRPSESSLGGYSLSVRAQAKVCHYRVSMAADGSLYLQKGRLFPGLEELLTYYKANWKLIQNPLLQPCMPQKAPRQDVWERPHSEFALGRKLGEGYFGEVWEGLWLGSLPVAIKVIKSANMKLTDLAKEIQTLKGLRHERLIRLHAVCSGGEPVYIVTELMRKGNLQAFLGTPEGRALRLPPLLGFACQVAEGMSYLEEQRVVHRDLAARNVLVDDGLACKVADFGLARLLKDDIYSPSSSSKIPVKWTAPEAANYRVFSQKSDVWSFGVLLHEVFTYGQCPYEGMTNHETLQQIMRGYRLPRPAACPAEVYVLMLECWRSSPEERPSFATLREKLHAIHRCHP
Sequence of VEGFR2 (P35968 20-1356): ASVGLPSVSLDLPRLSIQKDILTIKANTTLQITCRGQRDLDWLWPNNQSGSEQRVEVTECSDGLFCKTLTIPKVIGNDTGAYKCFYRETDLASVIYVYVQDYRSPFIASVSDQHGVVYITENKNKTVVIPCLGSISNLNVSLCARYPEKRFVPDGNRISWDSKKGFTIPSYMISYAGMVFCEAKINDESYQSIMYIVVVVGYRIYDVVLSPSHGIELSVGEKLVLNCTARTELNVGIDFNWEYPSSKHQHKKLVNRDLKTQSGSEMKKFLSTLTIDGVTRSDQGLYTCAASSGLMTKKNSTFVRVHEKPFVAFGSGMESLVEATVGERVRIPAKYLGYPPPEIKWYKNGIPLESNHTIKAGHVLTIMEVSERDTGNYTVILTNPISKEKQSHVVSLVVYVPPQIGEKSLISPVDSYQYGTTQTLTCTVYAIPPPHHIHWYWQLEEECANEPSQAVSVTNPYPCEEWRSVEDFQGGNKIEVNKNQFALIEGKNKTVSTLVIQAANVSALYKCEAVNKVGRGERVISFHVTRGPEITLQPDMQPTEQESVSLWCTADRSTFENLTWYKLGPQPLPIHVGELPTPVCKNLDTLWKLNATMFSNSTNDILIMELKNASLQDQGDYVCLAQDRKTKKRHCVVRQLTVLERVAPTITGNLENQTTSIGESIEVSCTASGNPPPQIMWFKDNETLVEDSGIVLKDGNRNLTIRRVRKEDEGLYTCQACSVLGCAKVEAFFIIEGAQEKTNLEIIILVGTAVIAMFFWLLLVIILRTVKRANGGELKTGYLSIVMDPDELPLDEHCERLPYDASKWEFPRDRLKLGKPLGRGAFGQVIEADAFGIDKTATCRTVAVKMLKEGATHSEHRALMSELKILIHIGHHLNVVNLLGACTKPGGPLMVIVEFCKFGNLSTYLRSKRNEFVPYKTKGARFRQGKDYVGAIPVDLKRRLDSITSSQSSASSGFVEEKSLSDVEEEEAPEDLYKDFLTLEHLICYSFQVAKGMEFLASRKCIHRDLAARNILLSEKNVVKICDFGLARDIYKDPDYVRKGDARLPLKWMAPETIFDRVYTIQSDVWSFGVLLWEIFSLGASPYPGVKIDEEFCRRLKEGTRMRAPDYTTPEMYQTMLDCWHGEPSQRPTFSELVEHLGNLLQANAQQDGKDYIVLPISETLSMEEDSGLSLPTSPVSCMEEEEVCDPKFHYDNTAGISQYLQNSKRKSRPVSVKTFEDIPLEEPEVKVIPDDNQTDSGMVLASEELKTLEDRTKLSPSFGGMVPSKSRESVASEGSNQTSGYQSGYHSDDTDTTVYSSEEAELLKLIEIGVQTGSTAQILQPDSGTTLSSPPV
Sequence of TLK2 (Q86UE8 whole entry): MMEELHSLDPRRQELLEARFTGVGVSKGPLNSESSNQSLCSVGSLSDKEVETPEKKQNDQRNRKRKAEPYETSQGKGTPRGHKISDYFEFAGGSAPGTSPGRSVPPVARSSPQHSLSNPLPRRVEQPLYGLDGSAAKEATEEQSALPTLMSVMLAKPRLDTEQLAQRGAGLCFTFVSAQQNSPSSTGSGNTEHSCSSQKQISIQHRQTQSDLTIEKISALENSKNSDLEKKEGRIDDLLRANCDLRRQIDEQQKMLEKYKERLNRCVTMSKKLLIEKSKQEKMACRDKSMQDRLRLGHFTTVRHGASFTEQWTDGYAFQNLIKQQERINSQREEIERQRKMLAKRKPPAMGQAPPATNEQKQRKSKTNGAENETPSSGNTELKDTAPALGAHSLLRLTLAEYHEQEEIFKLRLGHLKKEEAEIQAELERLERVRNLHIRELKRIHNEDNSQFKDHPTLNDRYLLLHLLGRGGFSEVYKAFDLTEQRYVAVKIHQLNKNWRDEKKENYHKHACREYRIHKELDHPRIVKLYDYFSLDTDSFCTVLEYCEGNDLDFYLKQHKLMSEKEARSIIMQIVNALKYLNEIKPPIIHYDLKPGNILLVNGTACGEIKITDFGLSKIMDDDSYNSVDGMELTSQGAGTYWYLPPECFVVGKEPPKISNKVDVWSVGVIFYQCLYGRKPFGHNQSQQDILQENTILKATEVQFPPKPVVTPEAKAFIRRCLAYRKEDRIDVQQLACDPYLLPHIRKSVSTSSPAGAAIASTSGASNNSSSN
Sequence of AAK1 (Q2M2I8 whole entry): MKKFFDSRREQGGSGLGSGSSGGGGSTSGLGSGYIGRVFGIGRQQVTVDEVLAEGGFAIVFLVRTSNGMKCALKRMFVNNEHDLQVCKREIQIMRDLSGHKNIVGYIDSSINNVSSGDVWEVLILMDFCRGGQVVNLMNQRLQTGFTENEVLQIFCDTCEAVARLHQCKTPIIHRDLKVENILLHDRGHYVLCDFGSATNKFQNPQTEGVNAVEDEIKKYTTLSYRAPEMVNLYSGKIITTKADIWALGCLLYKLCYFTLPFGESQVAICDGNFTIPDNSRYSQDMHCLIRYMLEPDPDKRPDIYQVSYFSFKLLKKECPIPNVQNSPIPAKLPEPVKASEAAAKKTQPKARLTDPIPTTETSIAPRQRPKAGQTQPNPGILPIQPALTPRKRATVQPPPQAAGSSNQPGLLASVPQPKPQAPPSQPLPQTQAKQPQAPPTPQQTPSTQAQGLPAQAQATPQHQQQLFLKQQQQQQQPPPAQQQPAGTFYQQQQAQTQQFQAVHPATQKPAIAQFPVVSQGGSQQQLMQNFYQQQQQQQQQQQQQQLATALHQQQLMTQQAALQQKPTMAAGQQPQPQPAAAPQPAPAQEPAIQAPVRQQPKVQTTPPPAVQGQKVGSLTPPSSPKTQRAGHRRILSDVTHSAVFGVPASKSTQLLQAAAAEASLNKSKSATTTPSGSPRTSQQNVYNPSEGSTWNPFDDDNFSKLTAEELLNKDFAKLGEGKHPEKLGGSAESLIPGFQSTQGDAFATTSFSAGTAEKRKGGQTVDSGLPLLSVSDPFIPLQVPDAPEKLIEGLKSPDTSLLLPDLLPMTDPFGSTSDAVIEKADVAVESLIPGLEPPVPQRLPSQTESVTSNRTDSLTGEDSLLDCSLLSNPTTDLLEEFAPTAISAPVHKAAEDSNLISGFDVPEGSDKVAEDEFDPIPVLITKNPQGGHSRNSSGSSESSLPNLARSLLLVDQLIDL
Sequence of CAMK1G (Q96NX5 whole entry): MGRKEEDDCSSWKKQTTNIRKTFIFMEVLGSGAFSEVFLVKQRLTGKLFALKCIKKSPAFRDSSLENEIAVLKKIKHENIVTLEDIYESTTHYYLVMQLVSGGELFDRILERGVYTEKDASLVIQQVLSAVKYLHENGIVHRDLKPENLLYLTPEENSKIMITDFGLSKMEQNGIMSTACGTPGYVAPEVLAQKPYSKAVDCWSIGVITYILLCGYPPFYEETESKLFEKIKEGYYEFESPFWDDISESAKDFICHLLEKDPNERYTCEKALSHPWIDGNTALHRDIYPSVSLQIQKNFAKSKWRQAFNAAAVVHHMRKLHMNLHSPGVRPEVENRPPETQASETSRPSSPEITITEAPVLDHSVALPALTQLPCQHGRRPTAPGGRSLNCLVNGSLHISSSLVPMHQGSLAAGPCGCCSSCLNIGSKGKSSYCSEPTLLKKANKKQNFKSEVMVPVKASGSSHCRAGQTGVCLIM
Sequence of MEK2 (P36507 whole entry): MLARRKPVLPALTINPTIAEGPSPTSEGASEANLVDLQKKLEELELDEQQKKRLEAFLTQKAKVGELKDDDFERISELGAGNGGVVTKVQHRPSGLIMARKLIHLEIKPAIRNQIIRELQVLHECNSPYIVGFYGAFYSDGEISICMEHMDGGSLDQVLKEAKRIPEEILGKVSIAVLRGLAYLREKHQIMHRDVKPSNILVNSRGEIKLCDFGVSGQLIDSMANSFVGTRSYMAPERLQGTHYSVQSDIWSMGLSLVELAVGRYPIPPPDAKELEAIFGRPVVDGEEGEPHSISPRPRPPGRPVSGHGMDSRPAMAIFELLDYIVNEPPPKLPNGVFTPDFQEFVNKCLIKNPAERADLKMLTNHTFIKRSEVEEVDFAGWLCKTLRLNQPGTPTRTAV
Protocol for AAK1: (§1) The kinase engagement assay (KINOMEscan®) was performed by DiscoverX assessing binding abilities toward a set of kinases.
Protocol for CAMK1G: as §1
Protocol for MEK2: as §1
Protocol for SRMS: as §1
Protocol for TLK2: as §1
Protocol for VEGFR2: as §1

As for `O=C1CCC(N2C(=O)c3cccc(NCCCCCCCCNC(=O)N4CC[C@H](NC5=Nc6cc(F)ccc6N(CC(F)F)c6ccc(Cl)cc65)C4)c3C2=O)C(=O)N1` (stereo partly drawn) [BJG-05-039, (3S)-3-((2-Chloro-5-(2,2-difluoroethyl)-8-fluoro-5H-dibenzo[b,e][1,4]diazepin-11-yl)amino)-N-(8-((2-(2,6-dioxopiperidin-3-yl)-1,3-dioxoisoindolin-4-yl)amino)octyl)pyrrolidine-1-carboxamide], the remaining binding at 10 µM on TLK2 came to 80%; at CAMK1G, 63%; at SRMS it was 97%; on AAK1, 48%; at MEK2, 96%; on VEGFR2 it was 100%. In addition, the “Change in protein abundance” value on PAK1 is “significant downregulation of this kinase was not apparent”.
